# Reference: US4355104A, “Bacteriolytic proteins” (priority 1980, dated 1982)
# What was measured:
# [1] = system: E. coli, strain D31; assay: turbidimetric lytic activity against E. coli; assay type: cell-based, Escherichia coli; settings: for Specific Lytic Activity: 1 unit = 50% lysis; for specific lytic activity against E. coli compared with immune hemolymph: versus starting material
# Text: (§1) The lytic activity of the P9 proteins against E. coli at each stage of the process can be determined turbidimetrically and the total weight of protein measured. For this purpose, one unit of lytic activity is defined as the amount of factor giving 50% reduction of the absorbance of […] (50% lysis) compared to a control. Log phase E. coli, strain D31 can be centrifuged and suspended in ice-cold 0.1 M phosphate buffer, pH 6.4, to give a density of 30 units on a Klett-Summerson colorimeter (A570 0.3-0.5). A small volume, usually 10 μl, of the sample to be tested is added to 1 ml of bacterial suspension in an ice bath. In the control samples, an equal amount of buffer is substituted. The mixture is incubated (30 minutes at 37° C.) and transferred back to the ice bath during which most of the clearing of the E. coli suspension occurs. Results of such a determination, usually measured within 1 h, are tabulated below in Table 1.
# [2] = system: Enterobacter cloacae, β11; assay: anti-bacterial specificity, killing time; assay type: cell-based; settings: time required for killing 90% of the bacteria; 3 x 10^6 cells/ml
# Text: (§2) The lysis of E. coli is believed to be due to at least two very similar small and basic proteins designated P9A and P9B. The P9 proteins are active against gram negative bacteria such as E. coli K12 strain D21f2, E. coli K12 strain D21, E. coli K12 strain D31, Enterobacter cloacae, β11, Pseudomonas aeruginosa, OT97, and Serratia marcescens, Db1108 but not S. marcescens Db11. The E. coli K12, strain D31 is a penicillin and streptomycin resistant mutant with a defective lipopolysaccharide. S. marcescens Db11 is a streptomycin resistant mutant derived from a parental strain, pathologic for Drosophila. S. marcescens Db1108 is a spontaneous phage resistant mutant of Db11. The bacterial strains are discussed in Boman, H. G., Nilsson-Faye, I., Paul, K. & Rasmuson, T. (1974) Infect. Immun. 10, 136-145; Monner, D. A., Jonsson, S. & Boman, H. G. (1971) J. Bacteriol. 107, 420-432; and Boman, H. G. & Monner, D. A. (1975) J. Bacteriol. 121, 455-464.
# (§3) The anti-bacterial specificity of P9 proteins was determined for gram negative bacteria. Killing time shown in Table 4 is the time required for killing 90% of the bacteria. […] It is also clear that the heptose-less mutant E. coli D21f2 and S. marcescens Db1108 both were more sensitive to P9 proteins than their respective parental strains, D21 and Db11.
# [3] = system: Serratia marcescens, Db11; assay: anti-bacterial specificity, killing time; assay type: cell-based; settings: time required for killing 90% of the bacteria; 3 x 10^6 cells/ml
# Text: as §2, §3
# [4] = system: Pseudomonas aeruginosa, OT97; assay: anti-bacterial specificity, killing time; assay type: cell-based; settings: time required for killing 90% of the bacteria; 4 x 10^6 cells/ml
# Text: as §2, §3
# [5] = system: Escherichia coli K12, D21f2; assay: anti-bacterial specificity, killing time; assay type: cell-based; settings: time required for killing 90% of the bacteria; 3 x 10^6 cells/ml
# Text: as §2, §3
# [6] = system: Serratia marcescens, Db1108; assay: anti-bacterial specificity, killing time; assay type: cell-based; settings: time required for killing 90% of the bacteria; 3 x 10^6 cells/ml
# Text: as §2, §3
# [7] = system: Escherichia coli K12, D21; assay: anti-bacterial specificity, killing time; assay type: cell-based; settings: time required for killing 90% of the bacteria; 4 x 10^6 cells/ml
# Text: as §2, §3
# [8] = system: E. coli; assay: heat stability in boiling water bath, remaining lytic activity; assay type: physicochemical, Escherichia coli
# Text: FIG. 3 is a graph depicting the effect of heat on the lytic activity of lysozyme and P9 proteins. The filled symbols in the figure indicate a pH of 6.4; the open symbols indicate a pH of 3.2. Activity against E. coli is denoted in the figure by triangles; activity against M. Luteus is denoted by squares.
# The activity against E. coli (triangles) is compared in FIG. 3 to the activity against M. luteus (squares). The former activity is associated with the P9 proteins and the latter with the lysozyme.
# [9] = system: E. coli; assay: influence of anions on lytic activity of P9 proteins; assay type: cell-based, Escherichia coli; settings: 0.045 M MES-buffer, pH 6.3
# Procedure: as §1, with “Log phase E. coli, strain D31 can be centrifuged and suspended in ice-cold 0.1 M phosphate buffer, pH 6.4, to give a density of 30 units on a Klett-Summerson colorimeter (A570 0.3-0.5).” left out
# The effects of sulfate or phosphate ions are hardly significant. The presence of acetate and formate buffers during the chromatography sequences until their removal by freeze-drying should be taken into account in interpreting the recovery data for protein P9 B in Table 1.
# [10] = system: E. coli D31; assay: simultaneous decrease of absorbance at 570 nm and viable count; assay type: cell-based, Escherichia coli; settings: eight units per ml, 1 min
# Procedure: For E. coli D31 the effect of P9 proteins can be observed by simultaneously following the decrease in the absorbance at 570 nm and the viable count of E. coli. Eight units of protein P9 B per ml in 1 min gave a reduction of viable count from 10^8 to <10^5 while the absorbance dropped 14%.
# [11] = fraction after Step 1 of chromatography
# [12] = added salt: Ammonium formate, ionic strength 0.15 M
# [13] = added salt: None, ionic strength 0.15 M with sodium chloride
# [14] = added salt: Sodium acetate, ionic strength 0.15 M
# [15] = added salt: Sodium phosphate, ionic strength 0.15 M
# [16] = added salt: Sodium sulfate, ionic strength 0.15 M
Substance,Specific Lytic Activity ([1]; after Step 2 and freeze-drying),"Specific Lytic Activity [1, 11]",specific lytic activity against E. coli compared with immune hemolymph [1],Killing Time [2],Killing Time [3],Killing Time [4],Killing Time [5],Killing Time [6],Killing Time [7],heat stability in words [8],"Relative Activity [9, 12]","Relative Activity [9, 13]","Relative Activity [9, 14]","Relative Activity [9, 15]","Relative Activity [9, 16]","increase in activity ([9]; acetate or formate ions, ionic strength 0.15 M with sodium chloride)",drop of absorbance at 570 nm [10],viable count after treatment ([10]; reduction from 10^8)
N-LYS-TRP-LYS-LEU-PHE-LYS-LYS-ILE-GLU-LYS-VAL-GLY-GLN-ASN-ILE-ARG-ASP-GLY- ILE-ILE-LYS-ALA-GLY-PRO-ALA-VAL-ALA-VAL-VAL-GLY-GLN-ALA-THR-C (KWKLFKKIEKVGQNIRDGIIKAGPAVAVVGQAT; printed: LYS-TRP-LYS-LEU-PHE-LYS-LYS-ILE-GLU-LYS-VAL-GLY-GLN-ASN-ILE-ARG-ASP-GLY- ILE-ILE-LYS-ALA-GLY-PRO-ALA-VAL-ALA-VAL-VAL-GLY-GLN-ALA-THR-) [P9 A],5.6 Units/μg of protein,4.4 Units/μg of protein,substantially greater,12 min,> 120 min,10 min,< 0.25 min,48 min,0.60 min,heat stable,1.3,1.0,0.9,0.8,0.6,,,
N-LYS-TRP-LYS-VAL-(MET)-ILE-(PHE)-LYS-LYS-ILE-(PHE)-GLU-LYS- -GLY-ARG-ASN-ILE-(PHE)-ARG-ASN-(LYS)-GLY- [P9 B],1.9 Units/μg of protein,5.3 Units/μg of protein,substantially greater,15 min,> 120 min,5 min,< 0.25 min,115 min,1 min,heat stable,4.5,1.0,4.1,1.3,1.2,four-fold increase,14%,< 10^5
